Experimental findings from ChEMBL document CHEMBL1146291, “Structure-activity delineation of quinones related to the biologically active Calothrixin B” (Bioorg Med Chem Lett, 2007) are described below.

The test system of one test is HeLa. The experiment in a line: Cytotoxicity against human HeLa cells by MTT assay. In kind it is functional, cell-based. (Tetrazolium assays rely on reduction of a dye to a coloured formazan, in cell work by metabolically active cells.)
For a further test, the system named is P388. The experiment in a line: Cytotoxicity against mouse P388 cells by MTT assay. In kind it is functional, cell-based.
Test [1] in a line: Cytotoxicity against CV1 cells by MTT assay. The conditions noted are these: Chlorocebus aethiops, CV-1. It counts as cell-based.

Turning to `O=C1C=CC(=O)c2c1[nH]c1ccccc21`, the EC50 in the test with HeLa is more than 50000 nM; in the test with P388, more than 50 µM; in test [1] it was more than 50 µM.
With `CC1=CC(=O)c2c([nH]c3ccccc23)C1=O`, the EC50 in the test with HeLa is 7000 nM; in the test on P388 it was 1 µM; in test [1], 1.7 µM.
The like results for `CC1=CC(=O)c2[nH]c3ccccc3c2C1=O` [MURRAYAQUINONE A] were, in that order, 13000 nM, 2.3 µM and 10 µM.
The like results for `O=C1c2[nH]c3ccccc3c2C(=O)c2cnc3ccccc3c21` [CALOTHRIXIN B] were, in that order, 250 nM, 9 µM and 2.4 µM.
Consider `O=C1c2ccccc2C(=O)c2c1[nH]c1ccccc21` [BENZOCARBAZOLEDIONE], for which the results for the EC50 (with HeLa; with P388; in test [1]) were 1800 nM, more than 50 µM and more than 50 µM, respectively.
As to `O=C1c2[nH]c3ccccc3c2C(=O)c2ccc3ccccc3c21`, the values for the EC50 (in the test with HeLa; with P388; in test [1]) were 1500 nM, more than 50 µM and more than 50 µM, respectively.

Usually EC50 stands for the concentration needed to bring the measured effect to its halfway point. Higher therefore signals weaker potency.
